From patent US20200032313A1 (SANYO CHEMICAL INDUSTRIES, LTD., priority 2017, published 2020)
Like-named read-outs stand apart in the source and are kept apart here.

Assays:
[1] = tested on: luciferase-expressing Pichia pastoris; format: cell-based; conditions: 8 hours culturing after addition
Description: Transformation was performed using Pichia pastoris distributed by Biotechnology Center, National Institute of Technology and Evaluation, whereby luciferase-expressing microorganisms were produced. A vector pPICZ a (Thermo Fisher Scientific) was digested with XhoI and XbaI, and a synthetic (synthesized by Thermo Fisher Scientific on commission) luciferase gene having an XhoI cut site at one end and an XbaI cut site at the other end was inserted into the vector. The microorganisms were transformed by the luciferase gene-inserted pPICZ a according to the method described in an instruction manual of pPICZ a. The luciferase-expressing microorganisms were inoculated using a platinum loop into BMGY broth, and were shake-cultured at 200 rpm at 30° C. for 15 hours. Then, the thus-obtained broth was resuspended in 125-ml BMGY broth (yeast extract 1 wt % (Difco), bacto peptone 2 wt % (Difco), yeast nitrogen base w/o amino acid 1.34 wt % (Difco), glucose 2 wt %, and 100 mM potassium hydrogen phosphate; pH: 6.0) to a final OD of 0.1 OD/ml. Further, the resuspended broth was continued to be shake-cultured at 1100 rpm at 30° C. for about 17 hours until OD was 20 to 30. When OD was 20 to 30, the broth was centrifuged (1500 g, 10 min), and resuspended in 125-ml BMMY broth, followed by culturing at 1100 rpm at 30° C. for 2 hours.
(§1) Two hours later, the surfactant described in Table 2 was added to the broth in the amount (wt %) described in Table 2, and the broth was cultured at 1100 rpm at 30° C. for 8 hours. Subsequently, the broth was sampled for measuring the optical density (optical density at the end of culturing) and for measuring the secretion efficiency. Then, these samples were subjected to centrifugation using a centrifuge to separate bacteria and the supernatant from the broth. Then, the supernatant and the bacteria were collected.
The optical density of the broth containing the microorganisms collected by sampling was measured in a quartz cell (light path of 1 cm) using a spectrophotometer (UV-1700, Shimadzu Corporation).
The broth was centrifuged at 1500 rpm at 4° C. for 5 minutes, and the supernatant was discarded. The precipitate was resuspended in a saline solution in an amount equal to the amount of the sample solution, and was diluted in the saline solution to obtain an appropriate absorbance (0.1 to 0.8). Then, the absorbance at 600 nm was measured. The optical density of the broth was calculated using the following mathematical formula (1).
Broth optical density(OD)=(Absorbance of diluted broth at 600 nm)×dilution factor of broth (Mathematical formula 1)

[2] = tested on: acid phosphatase-expressing Candida boidinii; format: cell-based; conditions: 8 hours
Description: Candida boidinii was transformed and acid phosphatase-expressing microorganisms were produced based on a method described in a known document (Regulation and evaluation of five methanol-inducible promoters in the methylotrophic yeast Candida boidinii, H. Yurimoto et al., Biochimica et Biophysica Acta, 1493, 2000, pp. 56-63). The acid phosphatase-expressing microorganisms were inoculated using a platinum loop into BMGY broth, and were shake-cultured at 200 rpm at 30° C. for 15 hours. Then, the thus-obtained broth was resuspended in 125-ml BMGY broth to a final OD of 0.1 OD/ml. Further, the resuspended broth was continued to be shake-cultured at 1100 rpm at 30° C. for about 17 hours until OD was 2 to 5. When OD was 2 to 5, methanol was added to a concentration of 2 v/v %, followed by culturing at 1100 rpm at 30° C. for 2 hours.
as §1, with “3” for “2”, “weight” for “amount (wt %)”, “3,” for “2,”, “Eight hours later,” for “Subsequently,”, “culturing),” for “culturing)”, “was” for “for measuring the secretion efficiency. Then, these samples were”
Then, 50 mM acetic acid NaBf (pH 4.0) was added to the bacteria, followed by centrifugation, whereby the bacteria were washed. The washed bacteria were resuspended in 50 mM acetic acid NaBf (pH 4.0), whereby a sample for measuring the acid phosphatase activity on the bacterial surface was obtained.
The supernatant obtained in each of Examples 23 to 33 and Comparative Example 3 was mixed with a 2 M sodium acetate buffer (pH 4.0) in an amount of 5 μl that is 1/40 of the amount of the supernatant. The buffer-containing supernatant or the sample for measuring the bacterial surface obtained in each of Examples 23 to 33 was mixed with a substrate solution (50 mM sodium acetate buffer containing 0.64 mg/ml of p-nitrophenylphosphate; pH 4.0) at a capacity ratio of 1:1, and the mixture was reacted at 35° C. for 10 minutes.
After the reaction, a 10% solution of trichloroacetic acid in an amount equal to the amount of the reaction solution was added to the reaction solution to terminate the reaction. To develop a color, a saturated sodium carbonate solution in an amount equal to the total amount of the reaction solution was added to the solution in which the reaction has been terminated. The color-developed solution was centrifuged at 1500×g for 5 minutes to remove the insoluble fraction, and the absorbance at 420 nm was measured using a microplate reader “PowerWave” (Biotek). The reference wavelength was set to 630 nm.
The acid phosphatase activity of each of the supernatant and the sample for measuring the bacterial surface was calculated from the following formula. The thus-obtained acid phosphatase activity of the supernatant was regarded as the “acid phosphatase activity of secreted and produced useful substance” and the acid phosphatase activity of the sample for measuring the bacterial surface was regarded as the “acid phosphatase activity of useful substance remaining on bacterial surface”.
Acid phosphatase activity=((Abs 420 nm)−(Abs 630 nm))/(optical density at the end of culturing)
For each of Examples 23 to 33 and Comparative Example 3, the obtained value of the “acid phosphatase activity of secreted and produced useful substance” and the obtained value of the “acid phosphatase activity of useful substance remaining on bacterial surface” were used to calculate the secretion efficiency from the following mathematical formula.
Secretion efficiency (%)=100×(Acid phosphatase activity of secreted and produced useful substance)/(total acid phosphatase activity) […]

[3] = surfactant 0.03 wt % of broth, Examples 13, 16-22
[4] = surfactant 0.03 wt % of broth, Examples 24, 27-33

## CCCCCCCCCCCCNCCC(=O)O
[1]; surfactant 0.003 wt % of broth, Example 12
  Optical density (OD) of broth at the end of culturing: 22.2 OD
[1]; [3]
  Optical density (OD) of broth at the end of culturing: 21.1 OD
[1]; surfactant 0.3 wt % of broth, Example 14
  Optical density (OD) of broth at the end of culturing: 18.1 OD
[1]; surfactant 3 wt % of broth, Example 15
  Optical density (OD) of broth at the end of culturing: 10.5 OD
[2]; surfactant 0.003 wt % of broth, Example 23
  Secretion efficiency (%): 49%
[2]; [4]
  Secretion efficiency (%): 63%
[2]; surfactant 0.3 wt % of broth, Example 25
  Secretion efficiency (%): 77%
[2]; surfactant 3 wt % of broth, Example 26
  Secretion efficiency (%): 79%

## CCCCCCCCCCCC[N+](C)(C)C.[Cl-] [Surfactant (A2-1), lauryl trimethyl ammonium chloride]
[1]; [3]
  Optical density (OD) of broth at the end of culturing: 15.8 OD
[2]; [4]
  Secretion efficiency (%): 61%

## CCCCCCCCCCCC[N+](C)(C)CCCS(=O)(=O)O.[OH-] [Surfactant (A3-3), dodecyldimethyl(3-sulfopropyl)ammonium hydroxide]
[1]; [3]
  Optical density (OD) of broth at the end of culturing: 27.6 OD
[2]; [4]
  Secretion efficiency (%): 54%

## CCCCCCCCCCCCCCCCOP(=O)([O-])OCC[N+](C)(C)C [Surfactant (A3-4), miltefosine, reference compound]
[1]; [3]
  Optical density (OD) of broth at the end of culturing: 30.7 OD
[2]; [4]
  Secretion efficiency (%): 54%

## CCCCCCCCCCCC[N+](C)(C)CC(=O)[O-] [Surfactant (A3-5), betaine lauryldimethylaminoacetate]
[1]; [3]
  Optical density (OD) of broth at the end of culturing: 26.1 OD
[2]; [4]
  Secretion efficiency (%): 61%

## sodium (2-dodecylamino)ethanesulfonate [Surfactant (A3-1)]
[1]; [3]
  Optical density (OD) of broth at the end of culturing: 27.0 OD
[2]; [4]
  Secretion efficiency (%): 57%

## sodium polyoxyethylene (average 2.5 mol adduct) lauryl ether sulfate [Surfactant (A1-1)]
[1]; [3]
  Optical density (OD) of broth at the end of culturing: 26.8 OD
[2]; [4]
  Secretion efficiency (%): 49%

## sodium polyoxyethylene (average 3 mol adduct) lauryl ether acetate [Surfactant (A1-2)]
[1]; [3]
  Optical density (OD) of broth at the end of culturing: 29.1 OD
[2]; [4]
  Secretion efficiency (%): 48%
